In brackets after ≈: the same amount, converted by molar mass.
What was measured:
S. aureus ATCC29213 = test: Human serum binding effect: MIC with and without human serum; type: cell-based, Staphylococcus aureus; conditions: 1:1 human serum:MHB
Protocol: The approximate measurement of the degree of binding of the compound to human serum proteins can be achieved by determination of the effect of the addition of human serum to the medium in which the MIC values against a selected bacterial strain is determined. The ratio of the MIC value obtained in presence of added human serum to the MIC value determined without serum addition was used as a measure of serum binding and the results of such determination are presented below in Table 2.
In addition to the standard MIC determination described above, the staphylococcal strain ATCC29213 is also tested in a ratio 1:1, human serum:MHB to obtain a preliminary estimate of the bioactivity of test compounds in serum: The assay was performed in Human Serum and Mueller-Hinton Broth (HSMHB) with a final bacterial inoculum of 1×10^6 CFU/mL (from an early-log phase culture) and a final volume of 100 μL. Control drugs, including imipenem, vancomycin, dicloxacillin, and new compounds were prepared in double-concentrated Mueller-Hinton broth at a concentration equivalent to 4-fold the desired final concentration. Dilution of compounds were prepared directly in the plates by serial 2-fold dilution in double-concentrated Mueller-Hinton using a multichannel pipette. Positive and negative growth controls were included in each plate. […] The inoculum was prepared by diluting the early log-phase (1 h) culture 1:100 with fresh double-concentrated Mueller-Hinton broth. A volume of 25 μL of the inoculum was added to each well. […] The exact inoculum was determined by applying 10 μl of 10-fold serial dilution of the bacterial suspension on TSA. After overnight incubation at 35° C., colony forming units were manually counted.

[1] = system: S. haemolyticus 05 (Meth^R); test: Broth microdilution MIC (NCCLS); type: cell-based; conditions: Staphylococcus haemolyticus
Protocol: (§1) Compounds were evaluated for antimicrobial activity against a panel of bacterial strains using a broth microdilution assay performed as recommended by the NCCLS (1). The minimum inhibitory concentration (MIC) was defined as the lowest concentration of drug which prevented the growth of the bacteria.
(§2) For this primary panel, the assay was performed in Mueller-Hinton Broth (MHB) with a final bacterial inoculum of 5×10^5 CFU/mL (from an early-log phase culture) and a final volume of 100 μL. Control drugs, including imipenem, vancomycin, Penicillin G, dicloxacillin (vs. MSSA ATCC29213 only), and new compounds were prepared at a concentration equivalent to 2-fold the desired final concentration. Dilution of compounds were prepared directly in the plates by serial 2-fold dilution using a multichannel pipette. Positive and negative growth control were included in each plate.
(§3) The bacterial inocula were prepared as follows. For each strain one isolated colony was used to inoculate a volume of 8 mL of Mueller-Hinton broth and these cultures were incubated overnight (20 h) at 35° C. in a shaking incubator. At the exception of Enterococcus strains, culture were then diluted 1:10 and allowed to grow for an additional one hour at 35° C. in a shaking incubator. The inocula were prepared by diluting the early log-phase (1 h) cultures 1:1000 with fresh Mueller-Hinton broth. E. faecium and E. faecalis were prepared by diluting overnight cultures 1:333 and 1:666, respectively, with fresh Mueller-Hinton broth. A volume of 50 μL of the inocula was added to each well. […] The exact inocula were determined by applying 10 μL of 10-fold serial dilution of the bacterial suspensions on TSA. After overnight incubation at 35° C., colony forming units were manually counted.
(§4) Microtiter plates were incubated during 24 h at 35° C. and were read using a microtiterplate reader (Molecular Devices) at 650 nm as well as by visual observation using a microtiterplate reading mirror.

P. aeruginosa ATCC 27853 = test: Broth microdilution MIC (NCCLS); type: cell-based; conditions: Pseudomonas aeruginosa, ATCC27853
Protocol: as §1, §2, §3, §4

E. faecalis VanB (Van^R) = test: Broth microdilution MIC (NCCLS); type: cell-based; conditions: Enterococcus faecalis
Protocol: as §1, §2, §3, §4

[2] = system: S. aureus Col (Meth^R)(lac^−); test: Broth microdilution MIC (NCCLS); type: cell-based; conditions: Staphylococcus aureus
Protocol: as §1, §2, §3, §4

[3] = system: S. aureus PC1 (Meth^S)(lac^+); test: Broth microdilution MIC (NCCLS); type: cell-based; conditions: Staphylococcus aureus
Protocol: as §1, §2, §3, §4

E. faecalis ATCC 29212 = test: Broth microdilution MIC (NCCLS); type: cell-based; conditions: Enterococcus faecalis, ATCC29212
Protocol: as §1, §2, §3, §4

[4] = system: S. aureus Spain #356 (Meth^R); test: Broth microdilution MIC (NCCLS); type: cell-based; conditions: Staphylococcus aureus, 24 h
Protocol: as §1, §2, §3, §4

S. aureus ATCC 29213 = test: Broth microdilution MIC (NCCLS); type: cell-based; conditions: Staphylococcus aureus, ATCC29213; S. aureus ATCC 29213; Mueller-Hinton broth, 24 h at 35° C.; read-out: MIC
Protocol: as §1, §2, §3, §4

E. faecium A491 (Amp^R) = test: Broth microdilution MIC (NCCLS); type: cell-based; conditions: Enterococcus faecium
Protocol: as §1, §2, §3, §4

[5] = system: S. aureus 76 (Meth^R)(lac^+); test: Broth microdilution MIC (NCCLS); type: cell-based; conditions: Staphylococcus aureus
Protocol: as §1, §2, §3, §4

E. coli ATCC25992 = test: Broth microdilution MIC (NCCLS); type: cell-based; conditions: Escherichia coli
Protocol: as §1, §2, §3, §4

[6] = system: S. aureus ATCC 33593 (Meth^R); test: Broth microdilution MIC (NCCLS); type: cell-based; conditions: Staphylococcus aureus, ATCC33593
Protocol: as §1, §2, §3, §4

[7] = system: S. aureus ATCC 13709 (Meth^S); test: Broth microdilution MIC (NCCLS); type: cell-based; conditions: Staphylococcus aureus, ATCC13709, S. aureus ATCC 13709 (Meth^S); read-out: MIC
Protocol: as §1, §2, §3, §4

E. faecium ATCC 35667 = test: Broth microdilution MIC (NCCLS); type: cell-based; conditions: Enterococcus faecium, ATCC35667
Protocol: as §1, §2, §3, §4

E. faecium VanA (Van^R) = test: Broth microdilution MIC (NCCLS); type: cell-based; conditions: Enterococcus faecium
Protocol: as §1, §2, §3, §4

In the case of NCCSc1nccc(SC2=C(C(=O)O)N3C(=O)[C@@H](NC(=O)/C(=N\O)c4cccc(N)n4)[C@H]3SC2)n1 [Cmpd 8, (7R)-7-[(Z)-2-(2-aminopyrid-6-yl)-2-(hydroxyimino)acetamido]-3-[2-(2-aminoethylthio)-pyrimidin-4-ylthio]-3-cephem-4-carboxylic acid], the “Human serum binding effect (ratio of MIC value determined with and without human serum added)” value (S. aureus ATCC29213) is reported as 128, the MIC [1] is reported as 32 µg/mL (≈ 58.3 µM) and the MIC (P. aeruginosa ATCC 27853) is reported as greater than 32 µg/mL. It also gave an MIC (E. faecalis VanB (Van^R)) of 16 µg/mL (≈ 29.2 µM), an MIC [2] of 16 µg/mL (≈ 29.2 µM) and an MIC [3] of 1 µg/mL (≈ 1.82 µM). For the same compound, the MIC (E. faecalis ATCC 29212) was 8 µg/mL (≈ 14.6 µM), the MIC [4] was 16 µg/mL (≈ 29.2 µM) and the MIC (S. aureus ATCC 29213) was 1 µg/mL (≈ 1.82 µM). For the same compound, the MIC (E. faecium A491 (Amp^R)) was greater than 32 µg/mL, the MIC [5] was 16 µg/mL (≈ 29.2 µM) and the MIC (E. coli ATCC25992) was 16 µg/mL (≈ 29.2 µM). The MIC [6] was 8 µg/mL (≈ 14.6 µM), the MIC [7] was 0.5 µg/mL (≈ 0.911 µM) and the MIC (E. faecium ATCC 35667) was 16 µg/mL (≈ 29.2 µM). For the same compound, the MIC (E. faecium VanA (Van^R)) was 32 µg/mL (≈ 58.3 µM).
In the case of N=C(N)NCCSCc1nc(N)sc1SC1=C(C(=O)O)N2C(=O)[C@@H](NC(=O)/C(=N\O)c3nc(N)sc3Cl)[C@H]2SC1 [Cmpd 26, (7R)-7-[(Z)-2-(2-amino-5-chlorothiazol-4-yl)-2-(hydroxyimino)acetamido]-3-[4-(2-guanidinoethylthiomethyl)-2-amino-1,3-thiazol-5-ylthio]-3-cephem-4-carboxylic acid], the “Human serum binding effect (ratio of MIC value determined with and without human serum added)” value (S. aureus ATCC29213) is reported as 2, the MIC [1] is reported as 0.5 µg/mL (≈ 0.752 µM) and the MIC (P. aeruginosa ATCC 27853) is reported as 4 µg/mL (≈ 6.01 µM). For the same compound, the MIC (E. faecalis VanB (Van^R)) was 0.06 µg/mL (≈ 0.0902 µM), the MIC [2] was 0.25 µg/mL (≈ 0.376 µM) and the MIC [3] was 0.06 µg/mL (≈ 0.0902 µM). The MIC (E. faecalis ATCC 29212) was 0.06 µg/mL (≈ 0.0902 µM), the MIC [4] was 0.5 µg/mL (≈ 0.752 µM) and the MIC (S. aureus ATCC 29213) was 0.06 µg/mL (≈ 0.0902 µM). The MIC (E. faecium A491 (Amp^R)) was 16 µg/mL (≈ 24.1 µM), the MIC [5] was 0.5 µg/mL (≈ 0.752 µM) and the MIC (E. coli ATCC25992) was 4 µg/mL (≈ 6.01 µM). The MIC [6] was 0.5 µg/mL (≈ 0.752 µM), the MIC [7] was 0.06 µg/mL (≈ 0.0902 µM) and the MIC (E. faecium ATCC 35667) was 0.5 µg/mL (≈ 0.752 µM). The MIC (E. faecium VanA (Van^R)) was 1 µg/mL (≈ 1.5 µM).
In the case of COc1nc(CSCCN)c(SC2=C(C(=O)O)N3C(=O)[C@@H](NC(=O)/C(=N\O)c4cccc(N)n4)[C@H]3SC2)s1 [Cmpd 5, (7R)-7-[(Z)-2-(2-aminopyrid-6-yl)-2-(hydroxyimino)acetamido]-3-[4-(2-aminoethylthiomethyl)-2-methoxy-1,3-thiazol-5-ylthio]-3-cephem-4-carboxylic acid], the “Human serum binding effect (ratio of MIC value determined with and without human serum added)” value (S. aureus ATCC29213) is reported as 4, the MIC [1] is reported as 8 µg/mL (≈ 13.4 µM) and the MIC (P. aeruginosa ATCC 27853) is reported as greater than 32 µg/mL. For the same compound, the MIC (E. faecalis VanB (Van^R)) was 1 µg/mL (≈ 1.67 µM), the MIC [2] was 4 µg/mL (≈ 6.69 µM) and the MIC [3] was 0.25 µg/mL (≈ 0.418 µM). It also gave an MIC (E. faecalis ATCC 29212) of 0.5 µg/mL (≈ 0.837 µM), an MIC [4] of 4 µg/mL (≈ 6.69 µM) and an MIC (S. aureus ATCC 29213) of 0.25 µg/mL (≈ 0.418 µM). It also gave an MIC (E. faecium A491 (Amp^R)) greater than 32 µg/mL, an MIC [5] of 4 µg/mL (≈ 6.69 µM) and an MIC (E. coli ATCC25992) of 32 µg/mL (≈ 53.5 µM). The MIC [6] was 4 µg/mL (≈ 6.69 µM), the MIC [7] was 0.13 µg/mL (≈ 0.217 µM) and the MIC (E. faecium ATCC 35667) was 4 µg/mL (≈ 6.69 µM). The MIC (E. faecium VanA (Van^R)) was 4 µg/mL (≈ 6.69 µM).
In the case of NCCSc1cncc(SC2=C(C(=O)O)N3C(=O)C(NC(=O)/C(=N\O)c4cccc(N)n4)C3SC2)n1 (stereo not shown) [Cmpd 6], the “Human serum binding effect (ratio of MIC value determined with and without human serum added)” value (S. aureus ATCC29213) is reported as 128, the MIC [1] is reported as 32 µg/mL (≈ 58.3 µM) and the MIC (P. aeruginosa ATCC 27853) is reported as greater than 32 µg/mL. The MIC (E. faecalis VanB (Van^R)) was 4 µg/mL (≈ 7.29 µM), the MIC [2] was 16 µg/mL (≈ 29.2 µM) and the MIC [3] was 0.5 µg/mL (≈ 0.911 µM). For the same compound, the MIC (E. faecalis ATCC 29212) was 2 µg/mL (≈ 3.65 µM), the MIC [4] was 16 µg/mL (≈ 29.2 µM) and the MIC (S. aureus ATCC 29213) was 0.5 µg/mL (≈ 0.911 µM). For the same compound, the MIC (E. faecium A491 (Amp^R)) was greater than 32 µg/mL, the MIC [5] was 16 µg/mL (≈ 29.2 µM) and the MIC (E. coli ATCC25992) was 16 µg/mL (≈ 29.2 µM). For the same compound, the MIC [6] was 8 µg/mL (≈ 14.6 µM), the MIC [7] was 0.25 µg/mL (≈ 0.456 µM) and the MIC (E. faecium ATCC 35667) was 8 µg/mL (≈ 14.6 µM). It also gave an MIC (E. faecium VanA (Van^R)) of 8 µg/mL (≈ 14.6 µM).
